In ChEMBL document CHEMBL1177829, “A novel organogermanium protected atopic dermatitis induced by oxazolone” (2010) one finds Activity data, which are given here for 2 compounds.

The source made the active and inactive calls. The calls are words filed in the database; no cut-off is given here.

Test [1] concerns Mus musculus. The test can be described thus: Antiinflammatory activity against oxazolone-induced atopic dermatitis in nude mouse assessed as decrease in transepidermal water loss at 0.01 % administered topically bid simultaneously with oxazolone qd for 10 days following 5 days post-oxazolone challenge relative to control. Format: functional. Details: scale not given: the % may be the effect or the level left.

In test [2] the test system is Mus musculus. The test can be described thus: Antiinflammatory activity against oxazolone-induced atopic dermatitis in nude mouse assessed as alleviation of parkeratotic scales at 1.8 % administered topically bid simultaneously with oxazolone qd for 10 days following 5 days post-oxazolone challenge relative to control. Format: functional, organism-based.
Test [3] has as its system Mus musculus. The test can be described thus: Antiinflammatory activity against oxazolone-induced atopic dermatitis in nude mouse assessed as decrease in transepidermal water loss at 0.3 % administered topically bid simultaneously with oxazolone qd for 10 days following 5 days post-oxazolone challenge relative to control. The class given is functional, organism-based. Details: scale not given: the % may be the effect or the level left.

Test [4] concerns Mus musculus. The test can be described thus: Antiinflammatory activity against oxazolone-induced atopic dermatitis in nude mouse assessed as infiltration of lymphocytes in dermis at 1.8 % administered topically bid simultaneously with oxazolone qd for 10 days following 5 days post-oxazolone challenge relative to control. Format: functional, organism-based.
Test [5] relates to Mus musculus. The test can be described thus: Antiinflammatory activity against oxazolone-induced atopic dermatitis in nude mouse assessed as decrease in skin thickness at 0.3 to 1.8 % administered topically bid simultaneously with oxazolone qd for 10 days following 5 days post-oxazolone challenge relative to control. Format: functional, organism-based.
Test [6] has as its system Mus musculus. The test can be described thus: Antiinflammatory activity against oxazolone-induced atopic dermatitis in nude mouse assessed as decrease in skin thickness at 0.01 % administered topically bid simultaneously with oxazolone qd for 10 days following 5 days post-oxazolone challenge relative to control. Format: functional, organism-based.
For test [7], the system named is Mus musculus. The test can be described thus: Antiinflammatory activity against oxazolone-induced atopic dermatitis in nude mouse assessed as reduction in IgE level at 0.3 to 1.8 % administered topically bid simultaneously with oxazolone qd for 10 days following 5 days post-oxazolone challenge relative to control. Format: functional, organism-based.
Test [8] relates to Mus musculus. The test can be described thus: Antiinflammatory activity against oxazolone-induced atopic dermatitis in nude mouse assessed as decrease in transepidermal water loss at 1.8 % administered topically bid simultaneously with oxazolone qd for 10 days following 5 days post-oxazolone challenge relative to control. The class given is functional, organism-based. Details: scale not given: the % may be the effect or the level left.

With `C[C@H]1C[C@H]2[C@@H]3CCC4=CC(=O)C=C[C@]4(C)[C@@]3(F)[C@@H](O)C[C@]2(C)[C@@]1(O)C(=O)CO` [BETAMETHASONE], the Activity in test [1] is on record as 57%.

Regarding “N-((2S)-2-(3,4-dihydroxy-5-oxo-2,5-dihydrofuran-2-yl)-2-hydroxyethyl)-3-(trimethylgermyl)propanamide”, the outcome in test [2], in test [4], in test [5], in test [6] and in test [7] was Active. In addition, the Activity in test [3] came to 6%; in test [8] it was 39%.
